Results from patent US10273231B2, “Azoline compounds substituted by a condensed ring system” (BASF SE, priority 2014, dated 2019).

Key:
Format in all cases: in vivo
[1] = tested on: Diamond Back Moth (Plutella xylostella); assay: B.1 Diamond back moth leaf-dip test on cabbage leaves; conditions: 3rd instar larvae, recorded 72 hours after treatment, read-out: mortality in comparison with untreated controls
Method: B.1 Diamond Back Moth (Plutella xylostella)
The active compound was dissolved at the desired concentration in a mixture of 1:1 (vol:vol) distilled water:aceteone. Surfactant (Kinetic HV) was added at a rate of 0.01% (vol/vol).The test solution was prepared at the day of use.
Leaves of cabbage were dipped in test solution and air-dried. Treated leaves were placed in petri dishes lined with moist filter paper and inoculated with ten 3rd instar larvae. Mortality was recorded 72 hours after treatment. Feeding damages were also recorded using a scale of 0-100%.

[2] = tested on: Green Peach Aphid (Myzus persicae); assay: B.2 Green peach aphid systemic test, artificial diet under membrane in microtiter plates; conditions: 72 h, adult aphids, assessed after 3 days, read-out: mortality in comparison with untreated controls
Source text: B.2 Green Peach Aphid (Myzus persicae)
For evaluating control of green peach aphid (Myzus persicae) through systemic means the test unit consisted of 96-well-microtiter plates containing liquid artificial diet under an artificial membrane.
The compounds were formulated using a solution containing 75% v/v water and 25% v/v DMSO. Different concentrations of formulated compounds were pipetted into the aphid diet, using a custom built pipetter, at two replications.
After application, 5-8 adult aphids were placed on the artificial membrane inside the microtiter plate wells. The aphids were then allowed to suck on the treated aphid diet and incubated at about 23±1° C. and about 50±5% relative humidity for 3 days. Aphid mortality and fecundity was then visually assessed.

[3] = tested on: Vetch Aphid (Megoura viciae); assay: B.3 Vetch aphid test on broad bean leaf disks; conditions: foliar, 120 h, adult aphids, assessed after 5 days, read-out: mortality in comparison with untreated controls
Method: B.3 Vetch Aphid (Megoura viciae)
For evaluating control of vetch aphid (Megoura viciae) through contact or systemic means the test unit consisted of 24-well-microtiter plates containing broad bean leaf disks.
The compounds were formulated using a solution containing 75% v/v water and 25% v/v DMSO. Different concentrations of formulated compounds were sprayed onto the leaf disks at 2.5 μl, using a custom built micro atomizer, at two replications.
After application, the leaf disks were air-dried and 5-8 adult aphids placed on the leaf disks inside the microtiter plate wells. The aphids were then allowed to suck on the treated leaf disks and incubated at about 23±10C and about 50±5% relative humidity for 5 days. Aphid mortality and fecundity was then visually assessed.

[4] = tested on: Tobacco Budworm (Heliothis virescens); assay: B.4 Tobacco budworm test, insect diet with eggs in microtiter plates; conditions: 120 h, egg and larval mortality after 5 days, read-out: mortality in comparison with untreated controls
Method: B.4 Tobacco Budworm (Heliothis virescens)
For evaluating control of tobacco budworm (Heliothis virescens) the test unit consisted of 96-well-microtiter plates containing an insect diet and 15-25 H. virescens eggs.
The compounds were formulated using a solution containing 75% v/v water and 25% v/v DMSO. Different concentrations of formulated compounds were sprayed onto the insect diet at 10 μl, using a custom built micro atomizer, at two replications.
After application, microtiter plates were incubated at about 28±10C and about 80±5% relative humidity for 5 days. Egg and larval mortality was then visually assessed.

[5] = tested on: Boll Weevil (Anthonomus grandis); assay: B.5 Boll weevil test, insect diet with eggs in microtiter plates; conditions: 120 h, egg and larval mortality after 5 days, read-out: mortality in comparison with untreated controls
Method: B.5 Boll Weevil (Anthonomus grandis)
For evaluating control of boll weevil (Anthonomus grandis) the test unit consisted of 96-well-microtiter plates containing an insect diet and 5-10 A. grandis eggs.
(§1) The compounds were formulated using a solution containing 75% v/v water and 25% v/v DMSO. Different concentrations of formulated compounds were sprayed onto the insect diet at 5 μl, using a custom built micro atomizer, at two replications.
After application, microtiter plates were incubated at about 25±1° C. and about 75±5% relative humidity for 5 days. Egg and larval mortality was then visually assessed.

[6] = tested on: Mediterranean Fruitfly (Ceratitis capitata); assay: B.6 Mediterranean fruitfly test, insect diet with eggs in microtiter plates; conditions: 120 h, egg and larval mortality after 5 days, read-out: mortality in comparison with untreated controls
Method: B.6 Mediterranean Fruitfly (Ceratitis capitata)
as §1, with “For evaluating control of Mediterranean fruitfly (Ceratitis capitata) the test unit consisted of microtiter plates containing an insect diet and 50-80 C. capitata eggs. The” for “The”
After application, microtiter plates were incubated at about 28±1° C. and about 80+5% relative humidity for 5 days. Egg and larval mortality was then visually assessed.

[7] = tested on: Orchid Thrips (Dichromothrips Corbetti); assay: B.7 Orchid thrips floral-immersion test; conditions: adult thrips, recorded 72 hours after treatment, read-out: mortality in comparison with untreated controls
Method: B.7 Orchid Thrips (Dichromothrips Corbetti) Dichromothrips corbettiadults used for bioassay were obtained from a colony maintained continuously under laboratory conditions. For testing purposes, the test compound is diluted in a 1:1 mixture of acetone:water (vol:vol), plus Kinetic HV at a rate of 0.01% v/v.
Thrips potency of each compound was evaluated by using a floral-immersion technique. All petals of individual, intact orchid flowers were dipped into treatment solution and allowed to dry in Petri dishes. Treated petals were placed into individual re-sealable plastic along with about 20 adult thrips. All test arenas were held under continuous light and a temperature of about 28° C. for duration of the assay. After 3 days, the numbers of live thrips were counted on each petal. The percent mortality was recorded 72 hours after treatment.

[8] = tested on: Rice Green Leafhopper (Nephotettix virescens); assay: B.8 Rice green leafhopper test on sprayed rice seedlings; conditions: adults, recorded after 72 hours, read-out: mortality in comparison with untreated controls
Method: B.8 Rice Green Leafhopper (Nephotettix virescens)
Rice seedlings were cleaned and washed 24 hours before spraying. The active compounds were formulated in 1:1 acetone:water (vol:vol), and 0.01% vol/vol surfactant (Kinetic HV) was added. Potted rice seedlings were sprayed with 5-6 ml test solution, air dried, covered with Mylar cages cages and inoculated with 10 adults. Treated rice plants were kept at about 28-29° C. and relative humidity of about 50-60%. Percent mortality was recorded after 72 hours.

[9] = tested on: Red Spider Mite (Tetranychus kanzawai); assay: B.9 Red spider mite test on sprayed cowpea beans; conditions: assessed 72 hours after treatment, read-out: mortality in comparison with untreated controls
Method: B.9 Red Spider Mite (Tetranychus kanzawai)
The active compound was dissolved at the desired concentration in a mixture of 1:1 (vol:vol) distilled water:acetone. Add surfactant (Kinetic HV) was added at a rate of 0.01% (vol/vol).The test solution was prepared at the day of use.
Potted cowpea beans of 4-5 days of age were cleaned with tap water and sprayed with 1-2 ml of the test solution using air driven hand atomizer. The treated plants were allowed to air dry and afterwards inoculated with 30 or more mites by clipping a cassava leaf section from rearing population. Treated plants were placed inside a holding room at about 25-27° C. and about 50-60% relative humidity. Percent mortality was assessed 72 hours after treatment.

[10] = tested on: Southern Armyworm (Spodoptera eridania); assay: B.10 Southern armyworm test on sprayed lima bean plants; conditions: 96 h, larvae, assessed 4 days after treatment, read-out: mortality in comparison with untreated controls
Method: B.10 Southern Armyworm (Spodoptera eridania)
The active compounds were formulated in cyclohexanone as a 10,000 ppm solution supplied in tubes. The tubes were inserted into an automated electrostatic sprayer equipped with an atomizing nozzle and they served as stock solutions for which lower dilutions were made in 50% acetone:50% water (v/v). A nonionic surfactant (Kinetic®) was included in the solution at a volume of 0.01% (v/v).
Lima bean plants (variety Sieva) were grown 2 plants to a pot and selected for treatment at the 1st true leaf stage. Test solutions were sprayed onto the foliage by an automated electrostatic plant sprayer equipped with an atomizing spray nozzle. The plants were dried in the sprayer fume hood and then removed from the sprayer. Each pot was placed into perforated plastic bags with a zip closure. About 10 to 11 armyworm larvae were placed into the bag and the bags zipped closed. Test plants were maintained in a growth room at about 250C and about 20-40% relative humidity for 4 days, avoiding direct exposure to fluorescent light (24 hour photoperiod) to prevent trapping of heat inside the bags. Mortality and reduced feeding were assessed 4 days after treatment, compared to untreated control plants.

[11] = tested on: Green Soldier Stink Bug (Nezara viridula); assay: B.11 Green soldier stink bug test on soybean pods in Petri dishes; conditions: 120 h, late 3rd instar, recorded after 5 days, read-out: mortality in comparison with untreated controls
Method: B.11 Green Soldier Stink Bug (Nezara viridula)
(§2) The active compound was dissolved at the desired concentration in a mixture of 1:1 (vol:vol) distilled water:acetone. Surfactant (Kinetic HV) was added at a rate of 0.01% (vol/vol).The test solution was prepared at the day of use.
Soybean pods were placed in glass Petri dishes lined with moist filter paper and inoculated with ten late 3rd instar N. viridula. Using a hand atomizer, approximately 2 ml solution is sprayed into each Petri dish. Assay arenas were kept at about 25° C. Percent mortality was recorded after 5 days.

[12] = tested on: Neotropical Brown Stink Bug (Euschistus heros); assay: B.12 Neotropical brown stink bug test on soybean pods in plastic cups; conditions: 120 h, adult stage, recorded after 5 days, read-out: mortality in comparison with untreated controls
Method: B.12 Neotropical Brown Stink Bug (Euschistus heros)
as §2
Soybean pods were placed in microwavable plastic cups and inoculated with ten adult stage E. heros. Using a hand atomizer, approximately 1 ml solution is sprayed into each cup, insects and food present. A water source was provided (cotton wick with water). Each treatment was replicated 2-fold. Assay arenas were kept at about 25° C. Percent mortality was recorded after 5 days.

[13] = tested on: Brown Marmorated Stink Bug (Halyomorpha halys); assay: B.13 Brown marmorated stink bug test on peanuts and soybean seeds in plastic cups; conditions: 120 h, adult stage, recorded after 5 days, read-out: mortality in comparison with untreated controls
Method: B.13 Brown Marmorated Stink Bug (Halyomorpha halys)
as §2
Row peanuts and soybean seeds were placed into microwavable plastic cups and inoculated with five adult stage H. halys. Using a hand atomizer, approximately 1 ml solution is sprayed into each cup, insects and food present. A water source was provided (cotton wick with water). Each treatment is replicated 4-fold. Assay arenas are kept at about 25° C. Percent mortality was recorded after 5 days.

O=C(NC1CS(=O)(=O)C1)c1ccc(C2=NOC(c3cc(Cl)c(F)c(Cl)c3)(C(F)(F)F)C2)c2c1SCC2 (centres unmarked) [Compound I-7, 4-[5-(3,5-dichloro-4-fluoro-phenyl)-5-(trifluoromethyl)-4H-isoxazol-3-yl]-N-(1,1-dioxothietan-3-yl)-2,3-dihydrobenzothiophene-7-carboxamide]
≥ 75%: mortality at 300 ppm [1] | mortality at 2500 ppm [2] | mortality at 2500 ppm [3] | mortality at 2500 ppm [4] | mortality at 2500 ppm [5] | mortality at 2500 ppm [6] | mortality at 300 ppm [7] | mortality at 300 ppm [8] | mortality at 300 ppm [9] | mortality at 10 ppm [10] | mortality at 300 ppm [11] | mortality at 100 ppm [12] | mortality at 100 ppm [13]

CCCC(=O)NCc1ccc(C2=NOC(c3cc(Cl)c(F)c(Cl)c3)(C(F)(F)F)C2)c2c1OCC2 (centres unmarked) [Compound I-16, N-[[4-[5-(3,5-dichloro-4-fluoro-phenyl)-5-(trifluoromethyl)-4H-isoxazol-3-yl]-2,3-dihydrobenzofuran-7-yl]methyl]butanamide]
≥ 75%: mortality at 300 ppm [1] | mortality at 2500 ppm [2] | mortality at 2500 ppm [3] | mortality at 2500 ppm [4] | mortality at 2500 ppm [5] | mortality at 2500 ppm [6] | mortality at 300 ppm [7] | mortality at 300 ppm [8] | mortality at 300 ppm [9] | mortality at 300 ppm [11]
